row,Compound,glass transition temperature
1,*c1ccc(C(c2ccccc2)c2ccc(N(*)c3ccc(C)cc3)cc2)cc1 (repeat unit),199.00 °C
2,*O[Si](C)(C)O[Si](C)(C)O[Si](*)(c1c(F)c(F)c(F)c(F)c1F)c1c(F)c(F)c(F)c(F)c1F (repeat unit),-42.00 °C
3,*Oc1ccc(C(=O)c2ccc(NC(=O)c3cccc(C(=O)Nc4ccc(C(=O)c5ccc(*)cc5)cc4)c3)cc2)cc1 (repeat unit),214.00 °C
4,*CCCCCCN1C(=O)c2ccc(C(c3ccc4c(c3)C(=O)N(*)C4=O)(C(F)(F)F)C(F)(F)F)cc2C1=O (repeat unit),155.00 °C
5,*Oc1ccc(C(c2ccc(Oc3c(F)c(F)c(C(=O)c4c(F)c(F)c(*)c(F)c4F)c(F)c3F)cc2)(C(F)(F)F)C(F)(F)F)cc1 (repeat unit),149.00 °C
6,*CC(*)CCCCCCCCCC (repeat unit),-6.00 °C
7,*O[Si](C)(C)O[Si](C)(C)O[Si](C)(C)O[Si](C)(C)C#Cc1ccc(C#C[Si](*)(C)C)cc1 (repeat unit),84.00 °C
8,*O[Si](C)(C)O[Si](C)(C)O[Si](C)(C)C#Cc1ccc(C#C[Si](*)(C)C)cc1 (repeat unit),96.00 °C
9,*CC(C)(CCC)C(=O)O* (repeat unit),1.90 °C
10,*c1ccc(Oc2ccc(N3C(=O)c4cccc(Oc5ccc(Oc6ccc(Oc7cccc8c7C(=O)N(*)C8=O)cc6)cc5)c4C3=O)cc2)cc1 (repeat unit),239.00 °C
11,*CC(CCCCCCCC)COC(=O)NC(=O)c1cccc(C(=O)NC(=O)O*)c1 (repeat unit),65.00 °C
12,*CC(*)C(=O)OCC(C)CC (repeat unit),-32.00 °C
13,*C(=O)c1cccc(C(=O)c2ccc3c(c2)C(=O)N(c2ccc(C(c4ccc(N5C(=O)c6ccc(*)cc6C5=O)cc4)(C(F)(F)F)C(F)(F)F)cc2)C3=O)c1 (repeat unit),262.50 °C
14,*CC(S*)c1ccccc1 (repeat unit),-2.50 °C
15,*CC(OC1CCCCC1)C1C(=O)OC(=O)C1* (repeat unit),201.00 °C
16,*CCC([2H])C(*)([2H])C (repeat unit),-47.50 °C
17,*C(=O)c1cc2c(cc1Cl)C(=O)N(c1cc(N3C(=O)c4cc(*)c(Cl)cc4C3=O)cc(C(F)(F)F)c1)C2=O (repeat unit),305.00 °C
18,*Cc1ccc(COP(=O)(/N=N/c2ccc(-c3ccc(/N=N/P(=O)(O*)OC)cc3)cc2)OC)cc1 (repeat unit),48.00 °C
19,*c1ccc(Oc2ccc(Oc3ccc(N4C(=O)c5ccc(-c6ccc7c(c6)C(=O)N(*)C7=O)cc5C4=O)cc3)c(-c3ccccc3)c2)cc1 (repeat unit),247.00 °C
20,*Oc1ccc(S(=O)(=O)c2ccc(Oc3ccc(C4(c5ccc(*)cc5)c5ccccc5-c5ccccc54)cc3)cc2)cc1 (repeat unit),278.50 °C
21,*CCCCOC(=O)OCCCCN1C(=O)c2ccc(-c3ccc4c(c3)C(=O)N(*)C4=O)cc2C1=O (repeat unit),104.00 °C
22,*CCCOC(=O)c1ccc2cc(C(=O)O*)ccc2c1 (repeat unit),88.00 °C
23,*c1cc(C)c(/N=C/c2ccc(OCc3ccccc3COc3ccc(/C=N/c4cc(C)c(N5C(=O)c6ccc7c8ccc9c%10c(ccc(c%11ccc(c6c7%11)C5=O)c%108)C(=O)N(*)C9=O)cc4C)cc3)cc2)cc1C (repeat unit),128.00 °C

row,Compound,glass transition temperature
1,*OC1CCCCC1* (repeat unit),68.50 °C
2,*CC(*)(C)C(=O)OCC1(CC)COC1 (repeat unit),105.00 °C
3,*CC(*)(C)C(=O)OC12CC3CC(C)(CC(C)(C3)C1)C2 (repeat unit),194.00 °C
4,*CC(Cc1cccc2ccccc12)C[Si](*)(C)C (repeat unit),17.00 °C
5,*c1cc(N2C(=O)c3ccc(Oc4ccc5c(c4)C(=O)N(*)C5=O)cc3C2=O)c(O)cc1O (repeat unit),263.00 °C
6,*c1cccc(OCCCCCCCCCCOc2cccc(N3C(=O)c4ccc(-c5ccc6c(c5)C(=O)N(*)C6=O)cc4C3=O)c2)c1 (repeat unit),125.00 °C
7,*C(=O)c1ccc2c(c1)C(=O)N(c1cccc(C(c3ccccc3)(c3cccc(N4C(=O)c5ccc(*)cc5C4=O)c3)C(F)(F)F)c1)C2=O (repeat unit),311.00 °C
8,*c1ccc(-c2ccc(N3C(=O)c4ccc(Oc5ccc(Oc6ccc7c(c6)C(=O)N(*)C7=O)cc5)cc4C3=O)c(OC)c2)cc1OC (repeat unit),274.00 °C
9,*CCN(CCOC(=O)Nc1ccc(C)c(NC(=O)O*)c1)c1ccc(/N=N/c2ccc(/C=C/c3nc4ccc([N+](=O)[O-])cc4n3CC)cc2)cc1 (repeat unit),171.00 °C
10,*CC(O)COc1ccc(C(C)(C)c2ccc(OCC(O)COc3ccc(NC(=O)CCCCC(=O)Nc4ccc(O*)cc4)cc3)cc2)cc1 (repeat unit),112.00 °C
11,*CC(*)C(=O)OC(OCC)C(F)(F)F (repeat unit),5.00 °C
12,*c1ccc(C(=O)NCCCCCCCCCCCCNC(=O)c2ccc(-c3nc4ccccc4nc3*)cc2)cc1 (repeat unit),154.00 °C
13,*C[Si](*)(C)CCCN(CC)CC (repeat unit),-31.7 °C
14,*Nc1ccc(C(c2ccc(NC(=O)c3cc(NC(=O)C45CC6CC(CC(C6)C4)C5)cc(C(*)=O)c3)cc2)(C(F)(F)F)C(F)(F)F)cc1 (repeat unit),365.00 °C
15,*CCCCCCCCc1nc2cc(-c3ccc4[nH]c(*)nc4c3)ccc2[nH]1 (repeat unit),234.00 °C
16,*/C(Cl)=C(/*)CCCCCCCC (repeat unit),90.00 °C
17,*CC(*)(C)C(=O)OCCCCCC(=O)Oc1ccc(OC(=O)c2ccc(OCC)cc2)cc1 (repeat unit),43.00 °C
18,*c1cc(Br)c(-c2c(Br)cc(N3C(=O)c4ccc(-c5ccc6c(c5)C(=O)N(*)C6=O)cc4C3=O)cc2C(=O)OCCCCCCCC)c(C(=O)OCCCCCCCC)c1 (repeat unit),135.50 °C
19,*O[Si](C)(C)c1ccc(-c2ccc([Si](*)(C)C)cc2)cc1 (repeat unit),67.00 °C
20,*CC(*)C(=O)Nc1ccc(C(=O)/C=C/c2ccc(Br)cc2)cc1 (repeat unit),64.00 °C
21,*CC(*)C(=O)NC(C)(C)CS(=O)(=O)O (repeat unit),85.00 °C
22,*C1C(=O)N(CCCCOc2ccc(-c3ccc(C#N)cc3)cc2)C(=O)C1* (repeat unit),115.00 °C
23,*CC(C[Si](*)(C)C)c1cccc2ccccc12 (repeat unit),39.00 °C

row,Compound,glass transition temperature
1,*O[Si](*)(C)CCCCCCOc1ccc(C(=O)Oc2ccc(C#N)cc2)cc1 (repeat unit),8.00 °C
2,*O[Si](*)(C)CCCOc1ccc(C(=O)Oc2ccc(-c3ccc(OC(=O)c4cc(OCCCCC)c(OCCCCC)c(OCCCCC)c4)cc3)cc2)cc1 (repeat unit),49.00 °C
3,*Oc1ccc(/N=C/CCC/C=N/c2ccc(OC(=O)NCCCCCCNC(*)=O)cc2)cc1 (repeat unit),72.00 °C
4,*c1ccc(Oc2ccc(Oc3ccc(N4C(=O)c5cccc(Oc6c(C)cc(Cc7cc(C)c(Oc8cccc9c8C(=O)N(*)C9=O)c(C)c7)cc6C)c5C4=O)c(C)c3)cc2)cc1C (repeat unit),238.00 °C
5,*Oc1ccc(C(C)(C)c2ccc(Oc3ccc(*)nn3)cc2)cc1 (repeat unit),180.00 °C
6,*CCCCCCCNC(=S)N* (repeat unit),52.00 °C
7,*OP(=O)(Oc1ccc(C(C)(C)c2ccc(*)cc2)cc1)Oc1c(Cl)cc(Cl)cc1Cl (repeat unit),94.00 °C
8,*Nc1cc(NC(=O)CCCCC(*)=O)cc(-c2nnc(-c3ccccn3)o2)c1 (repeat unit),159.00 °C
9,*CCN(*)C(=O)c1c(F)ccc(F)c1F (repeat unit),124.00 °C
10,*CCCCCCOC(=O)c1cc(OCCCCCCOc2ccc(/N=N/c3ccc(C#N)cc3)cc2)cc(C(=O)OCCCCCCN2C(=O)c3ccc(-c4ccc(-c5ccc6c(c5)C(=O)N(*)C6=O)cc4)cc3C2=O)c1 (repeat unit),67.00 °C
11,*Oc1ccc(CC(NC(=O)CCc2ccc(OC(=O)COCCOCC(*)=O)cc2)C(=O)OC(C)CC)cc1 (repeat unit),44.00 °C
12,*CC(COc1ccc(C(C)(C)c2ccc(O*)cc2)cc1)OC(=O)/C=C/c1ccco1 (repeat unit),107.20 °C
13,*c1ccc(-c2sc(-c3cc(CCCCCCCC)c(*)s3)cc2CCCCCCCC)cc1 (repeat unit),50.40 °C
14,*Oc1ccc(SC(=O)Sc2ccc(*)cc2)cc1 (repeat unit),117.00 °C
15,*C(=O)c1ccc2c(c1)C(=O)N(c1cccc(Oc3cccc(Oc4cccc(N5C(=O)c6ccc(*)cc6C5=O)c4)c3)c1)C2=O (repeat unit),211.00 °C
16,*c1ccc(Oc2ccc(S(=O)(=O)c3ccc(Oc4ccc(-c5nc(-c6ccccn6)nnc5*)cc4)cc3)cc2)cc1 (repeat unit),265.00 °C
17,*CC(OCCCC)C(C(=O)OC)C(*)C(=O)OC (repeat unit),32.50 °C
18,*c1ccc(Oc2cccc(Oc3ccc(N4C(=O)c5ccc(Oc6ccc(C(C)(C)c7ccc(Oc8ccc9c(c8)C(=O)N(*)C9=O)cc7)cc6)cc5C4=O)cc3)c2)cc1 (repeat unit),246.00 °C
19,*OC(COC(=O)c1c(F)c(F)c(-c2c(F)c(F)c(C(*)=O)c(F)c2F)c(F)c1F)COc1ccc(/N=N/c2ccc(C#N)cc2)cc1 (repeat unit),112.00 °C
20,*Oc1c(C)cc(-c2cc(C)c(OC(=O)CCCCC(*)=O)c(C)c2)cc1C (repeat unit),108.00 °C
21,*/C=C/c1ccc(OC(=O)c2ccc(C(=O)Oc3cccc4ccc(*)nc34)cc2)cc1 (repeat unit),112.00 °C
22,*C(=O)c1ccc(C(=O)N(*)c2ccccc2)c(Sc2ccccc2)c1 (repeat unit),152.00 °C

# Source: the PolyMetriX glass transition set
